Laboratory results taken from ChEMBL document CHEMBL5380786, “Selective Covalent Targeting of Pyruvate Kinase M2 Using Arsenous Warheads” (J Med Chem, 2023).
Activity calls are given as the source filed them. The calls are words filed in the database; no cut-off is given here.

Experiments:
[1] = biological target: T1, Pyruvate kinase PKM (Homo sapiens, UniProt P14618); assay: Inhibition of human PKM2 assessed as ATP production incubated for 10 mins by Celltiter-glo luminescent analysis
Target sequence in this assay (P14618 whole entry): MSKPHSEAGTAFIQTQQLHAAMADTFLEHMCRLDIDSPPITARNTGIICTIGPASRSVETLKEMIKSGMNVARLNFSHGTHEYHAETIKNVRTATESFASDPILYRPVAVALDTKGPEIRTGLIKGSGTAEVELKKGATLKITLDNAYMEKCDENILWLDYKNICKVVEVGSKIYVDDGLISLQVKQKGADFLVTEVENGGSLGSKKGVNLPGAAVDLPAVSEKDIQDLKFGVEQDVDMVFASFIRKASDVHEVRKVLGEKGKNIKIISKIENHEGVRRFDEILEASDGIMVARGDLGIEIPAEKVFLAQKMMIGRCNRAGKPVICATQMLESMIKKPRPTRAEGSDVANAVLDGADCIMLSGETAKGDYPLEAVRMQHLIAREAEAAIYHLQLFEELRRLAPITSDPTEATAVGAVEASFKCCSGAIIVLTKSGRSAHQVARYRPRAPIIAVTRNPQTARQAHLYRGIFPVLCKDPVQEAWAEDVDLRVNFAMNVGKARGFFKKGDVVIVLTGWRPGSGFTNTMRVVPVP

[2] = biological target: T1, Pyruvate kinase PKM; assay: Inhibition of human PKM2 assessed as ATP production incubated for 10 mins in presence of beta-mercaptoethanol by Celltiter-glo luminescent analysis
Target sequence in this assay (P14618 whole entry): as above

[3] = system: PA-1; assay: Antiproliferative activity against human PA-1 cells assessed as reduction in cell viability incubated for 72 hrs by Cell-TiterGlo assay; assay type: functional, cell-based; conditions: PA-1, 72 h
[4] = system: A2780; assay: Antiproliferative activity against human A2780 cells assessed as reduction in cell viability incubated for 72 hrs by Cell-TiterGlo assay; assay type: functional, cell-based; conditions: A2780, 72 h
[5] = system: SK-OV-3; assay: Antiproliferative activity against human SK-OV-3 cells assessed as reduction in cell viability incubated for 72 hrs by Cell-TiterGlo assay; assay type: functional, cell-based; conditions: SK-OV-3, 72 h
[6] = biological target: T1, Pyruvate kinase PKM; assay: Binding affinity to PKM2 in human PA-1 cells at 10 uM pretreated for 6 hrs followed by pulldown using streptavidin agarose resin by Western blot analysis; assay type: cell-based
Target sequence in this assay (P14618 2-531 limits assumed): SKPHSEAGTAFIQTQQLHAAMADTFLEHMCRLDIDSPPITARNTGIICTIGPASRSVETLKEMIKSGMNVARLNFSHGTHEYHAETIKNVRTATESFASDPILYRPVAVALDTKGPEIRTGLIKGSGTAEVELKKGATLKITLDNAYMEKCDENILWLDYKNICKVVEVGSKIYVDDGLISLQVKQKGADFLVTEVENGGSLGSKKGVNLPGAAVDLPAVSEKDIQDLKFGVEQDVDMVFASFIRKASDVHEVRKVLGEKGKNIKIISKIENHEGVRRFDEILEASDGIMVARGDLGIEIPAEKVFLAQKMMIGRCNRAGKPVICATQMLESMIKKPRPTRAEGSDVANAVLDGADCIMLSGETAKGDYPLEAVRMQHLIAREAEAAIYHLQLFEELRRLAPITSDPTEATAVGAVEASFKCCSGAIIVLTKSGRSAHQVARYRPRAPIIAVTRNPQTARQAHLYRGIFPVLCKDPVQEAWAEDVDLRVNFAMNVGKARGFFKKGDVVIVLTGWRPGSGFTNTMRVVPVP

[7] = biological target: T1, Pyruvate kinase PKM; assay: Binding affinity to PKM2 in human SK-OV-3 cells at 10 uM pretreated for 6 hrs followed by pulldown using streptavidin agarose resin by Western blot analysis; assay type: cell-based
Target sequence in this assay (P14618 2-531 limits assumed): as above

[8] = biological target: T1, Pyruvate kinase PKM; assay: Binding affinity to human PKM1 in HEK-293T by measuring pulldown using streptavidin agarose resin preincubated for 18 hrs followed by streptavidin pulldown for 18 hrs by silver staining based immunoblotting analysis; assay type: cell-based; conditions: time 36.0 hrs
Target sequence in this assay (P14618 2-531 limits assumed): as above

[9] = biological target: T1, Pyruvate kinase PKM; assay: Binding affinity to human PKM2 in HEK-293T by measuring pulldown using streptavidin agarose resin preincubated for 18 hrs followed by streptavidin pulldown for 18 hrs by silver staining based immunoblotting analysis; assay type: cell-based; conditions: time 36.0 hrs
Target sequence in this assay (P14618 2-531 limits assumed): as above

[10] = biological target: T1, Pyruvate kinase PKM; assay: Inhibition of human PKM1 assessed as ATP production incubated for 10 mins by Celltiter-glo luminescent analysis
Target sequence in this assay (P14618 whole entry): as the sequence (P14618 whole entry) above

[11] = biological target: T1, Pyruvate kinase PKM; assay: Binding affinity to PKM2 in human PA-1 cells assessed as thermal stabilization at 2 uM measured for 6 hrs by cellular thermal shift assay; assay type: cell-based
Target sequence in this assay (P14618 2-531 limits assumed): as the sequence (P14618 2-531 limits assumed) above

[12] = biological target: T1, Pyruvate kinase PKM; assay: Binding affinity to PKM2 in human SK-OV-3 cells assessed as thermal stabilization at 2 uM measured for 6 hrs by cellular thermal shift assay; assay type: cell-based
Target sequence in this assay (P14618 2-531 limits assumed): as above

[13] = biological target: T1, Pyruvate kinase PKM; assay: Binding affinity to wild type FLAG-tagged PKM2 in human PA-1 cells measured for 72 hrs; assay type: cell-based
Target sequence in this assay (P14618 whole entry): as the sequence (P14618 whole entry) above

[14] = biological target: Pyruvate kinase PKM (Homo sapiens, UniProt P14618, C474A); assay: Binding affinity to PKM2 C474A mutant in human PA-1 cells measured for 72 hrs; assay type: cell-based
Pyruvate kinase PKM (Homo sapiens, UniProt P14618, C474A), sequence (P14618 2-531 C474A limits assumed): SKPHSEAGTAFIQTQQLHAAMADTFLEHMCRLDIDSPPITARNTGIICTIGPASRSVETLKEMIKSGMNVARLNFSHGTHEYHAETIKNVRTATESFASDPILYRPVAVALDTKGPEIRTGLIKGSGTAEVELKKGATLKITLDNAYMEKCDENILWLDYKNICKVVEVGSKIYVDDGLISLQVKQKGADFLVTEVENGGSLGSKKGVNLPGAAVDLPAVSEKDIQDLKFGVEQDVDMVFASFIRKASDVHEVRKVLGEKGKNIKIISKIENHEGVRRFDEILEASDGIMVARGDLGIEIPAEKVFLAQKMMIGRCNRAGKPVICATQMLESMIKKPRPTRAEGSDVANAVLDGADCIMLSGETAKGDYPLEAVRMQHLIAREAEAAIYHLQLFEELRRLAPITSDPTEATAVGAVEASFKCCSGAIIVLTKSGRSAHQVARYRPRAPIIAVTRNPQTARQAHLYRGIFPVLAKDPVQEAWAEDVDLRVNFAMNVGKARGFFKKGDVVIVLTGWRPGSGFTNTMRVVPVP

[15] = biological target: Pyruvate kinase PKM (Homo sapiens, UniProt P14618, C474S); assay: Binding affinity to PKM2 C474S mutant in human PA-1 cells measured for 72 hrs; assay type: cell-based
Pyruvate kinase PKM (Homo sapiens, UniProt P14618, C474S), sequence (P14618 2-531 C474S limits assumed): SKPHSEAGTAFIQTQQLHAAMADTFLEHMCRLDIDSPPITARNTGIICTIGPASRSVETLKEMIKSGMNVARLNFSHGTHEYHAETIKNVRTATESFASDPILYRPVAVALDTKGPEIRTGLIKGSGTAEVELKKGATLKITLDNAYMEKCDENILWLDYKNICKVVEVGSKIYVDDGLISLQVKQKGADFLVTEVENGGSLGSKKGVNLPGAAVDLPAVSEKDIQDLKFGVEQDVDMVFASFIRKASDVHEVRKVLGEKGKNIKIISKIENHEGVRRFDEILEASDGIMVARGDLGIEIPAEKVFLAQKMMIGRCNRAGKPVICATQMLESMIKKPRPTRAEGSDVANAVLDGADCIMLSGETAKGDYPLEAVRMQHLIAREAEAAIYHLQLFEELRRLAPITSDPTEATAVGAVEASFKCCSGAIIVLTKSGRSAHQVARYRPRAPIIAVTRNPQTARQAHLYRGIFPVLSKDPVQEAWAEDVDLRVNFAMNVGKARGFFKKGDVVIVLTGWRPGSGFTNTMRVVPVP

[16] = biological target: T1, Pyruvate kinase PKM; assay: Binding affinity to PKM2 in human PA-1 cells assessed as target engagement of protein at 10 uM silver staining based […] gel electrophoresis analysis; assay type: cell-based
[17] = biological target: T1, Pyruvate kinase PKM; assay: Binding affinity to PKM2 in human HeLa cells assessed as nuclear translocation at 0.5 uM measured for 24 hrs by DAPI staining based immunofluorescence analysis; assay type: cell-based
[18] = system: PA-1; assay: Antiproliferative activity against human PKM2 knockdown PA-1 cells assessed as reduction in cell viability incubated after 96 hrs by Cell-TiterGlo assay; assay type: functional, cell-based
[19] = system: SK-OV-3; assay: Antiproliferative activity against human PKM2 knockdown SK-OV-3 cells assessed as reduction in cell viability incubated after 96 hrs by Cell-TiterGlo assay; assay type: functional, cell-based
[20] = system: HEY; assay: Antitumor activity against human HEY cells xenografted in BALB/c nude mouse model assessed as reduction of tumor burden at 50 mg/kg, po qd; assay type: functional, organism-based
[21] = system: HEY; assay: Antitumor activity against human HEY cells xenografted in BALB/c nude mouse model assessed as reduction in total tumor weight by measuring fold change at 50 mg/kg, po qd; assay type: functional
[22] = system: HEY; assay: Antitumor activity against human HEY cells xenografted in BALB/c nude mouse model assessed as reduction average tumor volume by measuring fold change at 50 mg/kg, po qd by caliper analysis; assay type: functional
[23] = Toxicity in BALB/c mouse assessed as change in body weight at 50 mg/kg, po qd measured after 2 weeks; assay type: organism-based; conditions: in vivo, 336 h
[24] = Toxicity in BALB/c mouse assessed as adverse effects at 50 mg/kg, po qd measured after 2 weeks; assay type: organism-based; conditions: in vivo, 336 h
[25] = biological target: T1, Pyruvate kinase PKM; assay: Inhibition of PKM2 in human PA-1 cells assessed as increase in extracellular acidification rate at 1 to 5 uM measured for 12 hrs by Seahorse XF96 extracellular flux analyzer; assay type: cell-based; conditions: dose 1-5 µM
[26] = biological target: T1, Pyruvate kinase PKM; assay: Inhibition of PKM2 in human SK-OV-3 cells assessed as decrease in extracellular acidification rate at 5 uM measured for 12 hrs by Seahorse XF96 extracellular flux analyzer; assay type: cell-based
[27] = biological target: T1, Pyruvate kinase PKM; assay: Inhibition of PKM2 in human PA-1 cells assessed as reduction pyruvate level at 5 uM measured for 12 hrs by LC-MS analysis; assay type: cell-based
[28] = biological target: T1, Pyruvate kinase PKM; assay: Inhibition of PKM2 in human PA-1 cells assessed as increase in ADP/ATP ratio at 5 uM measured for 12 hrs by LC-MS analysis; assay type: cell-based
[29] = biological target: T1, Pyruvate kinase PKM; assay: Inhibition of PKM2 in human PA-1 cells assessed as reduction in LDH level at 5 uM measured after 3 hrs by Western blot analysis; assay type: cell-based
[30] = biological target: T1, Pyruvate kinase PKM; assay: Inhibition of PKM2 in human PA-1 cells assessed as reduction in c-MYC phosphorylation level at 3 uM incubated for 6 to 12 hrs by Western blotting analysis; assay type: cell-based; conditions: time 6-12 hrs
[31] = biological target: T1, Pyruvate kinase PKM; assay: Inhibition of PKM2 in human PA-1 cells assessed as reduction in cyclin D1 phosphorylation level at 3 uM incubated for 6 to 12 hrs by Western blotting analysis; assay type: cell-based; conditions: time 6-12 hrs
[32] = biological target: T1, Pyruvate kinase PKM; assay: Inhibition of PKM2 in human PA-1 cells assessed as effect on STAT3 phosphorylation level at 3 uM incubated for 6 to 12 hrs by Western blotting analysis; assay type: cell-based; conditions: time 6-12 hrs
[33] = biological target: T1, Pyruvate kinase PKM; assay: Inhibition of PKM2 in human PA-1 cells assessed as effect on AKT phosphorylation level at 3 uM incubated for 6 to 12 hrs by Western blotting analysis; assay type: cell-based; conditions: time 6-12 hrs
[34] = biological target: T1, Pyruvate kinase PKM; assay: Inhibition of PKM2 in human PA-1 cells assessed as effect on ERK1/2 phosphorylation level at 3 uM incubated for 6 to 12 hrs by Western blotting analysis; assay type: cell-based; conditions: time 6-12 hrs
[35] = system: SK-OV-3; assay: Inhibition of PKM2 knockdown in human SK-OV-3 cells assessed as AMPK phosphorylation level at 3 uM incubated for 6 to 12 hrs by Western blotting analysis; assay type: functional, cell-based; conditions: time 6-12 hrs
[36] = system: SK-OV-3; assay: Inhibition of PKM2 knockdown in human SK-OV-3 cells assessed as c-MYC phosphorylation level at 3 uM incubated for 6 to 12 hrs by Western blotting analysis; assay type: functional, cell-based; conditions: time 6-12 hrs

For `COc1ccc([As](O)O)cc1NC(=O)COCCOCCOCCOCCNC(=O)CCCC[C@H]1SC[C@H]2NC(=O)N[C@H]21`, the IC50 [1] was 0.999 µM and the IC50 [2] was 1.28 µM.

For `CCN1CCC(CN(C(=O)[C@@H]2CCN(Cc3ccccc3)C2)c2ccc([As](O)O)cc2)CC1`, the IC50 [1] was 0.122 µM, the IC50 [2] was 0.25 µM and the IC50 [3] was greater than 10 µM. For the same compound, the IC50 [4] was greater than 10 µM, the IC50 [5] was greater than 10 µM and the Activity [6] was “Active”. For the same compound, the Activity [7] was “Active”.

For `O=C(CCCC[C@H]1SC[C@H]2NC(=O)N[C@H]21)NCCOCCOCCOCCN1CCC(CN(C(=O)[C@@H]2CCN(Cc3ccccc3)C2)c2ccc([As]3SCCS3)cc2)CC1`, the Activity [8] was “inactive”, the Activity [6] was “inactive” and the Activity [7] was “inactive”.

In the case of `CN1CC[C@@H](C(=O)Nc2ccc([As](O)O)cc2)C1`, the IC50 [1] is reported as 0.139 µM, the IC50 [2] is reported as 0.586 µM and the IC50 [3] is reported as 0.48 µM. It also gave an IC50 [4] of 0.34 µM and an IC50 [5] of 0.28 µM.

With `O=C(CCCC[C@H]1SC[C@H]2NC(=O)N[C@H]21)NCCOCCOCCOCCOCC(=O)Nc1ccc(B(O)O)cc1` the IC50 [1] was greater than 10 µM and the IC50 [2] was greater than 10 µM.

`CN1CC[C@@H](C(=O)N(Cc2ccccc2)c2ccc([As](O)O)cc2)C1` showed an IC50 [1] of 0.285 µM and an IC50 [2] of 1.79 µM.

For `O=C(CCCC[C@H]1SC[C@H]2NC(=O)N[C@H]21)NCCOCCOCCOCCN1CCC(CN(C(=O)[C@@H]2CCN(Cc3ccccc3)C2)c2ccc([As](O)O)cc2)CC1`, the Activity [8] was “inactive” and the Activity [9] was “Active”.

`CC(C)=CC[C@@H](O)C1=CC(=O)c2c(O)ccc(O)c2C1=O` [SHIKONIN] showed an IC50 [1] of 2.58 µM, an IC50 [2] greater than 10 µM and an IC50 [10] of 1.52 µM. It also gave an IC50 [3] of 0.92 µM, an IC50 [4] of 0.39 µM and an IC50 [5] of 3.46 µM. The Activity [11] was “inactive”, the Activity [12] was “inactive” and the Activity [6] was “Active”. The Activity [7] was “Active”, the IC50 [13] was 0.301 µM and the IC50 [14] was 0.381 µM. It also gave an IC50 [15] of 0.326 µM.

`O=C([C@@H]1CCN(Cc2ccccc2)C1)N(Cc1ccccc1)c1ccc([As](O)O)cc1` gave an IC50 [1] of 0.326 µM and an IC50 [2] of 1.49 µM.

With `CCN1CCC(CN(C(=O)[C@H]2CCN(Cc3ccccc3)C2)c2ccc([As]3SCCS3)cc2)CC1` the IC50 [3] was 0.1 µM, the IC50 [4] was 0.11 µM and the IC50 [5] was 0.13 µM.

In the case of `O=C(CCCC[C@H]1SC[C@H]2NC(=O)N[C@H]21)NCCOCCOCCOCCOCC(=O)Nc1ccc([As](O)O)cc1`, the IC50 [1] is reported as 0.23 µM, the IC50 [2] is reported as 1.03 µM and the Activity [16] is reported as “Active”.

For `CCN1CCC(CN(C(=O)[C@H]2CCN(Cc3ccccc3)C2)c2ccc([As](O)O)cc2)CC1`, the IC50 [1] was 0.671 µM and the IC50 [2] was 2.14 µM.

For `O=C(CCCC[C@H]1SC[C@H]2NC(=O)N[C@H]21)NCCOCCOCCOCCOCC(=O)Nc1ccc([As]2SCCS2)cc1`, the Activity [16] was “inactive”.

`CCN1CCC(CN(C(=O)[C@@H]2CCN(Cc3ccccc3)C2)c2ccc(B(O)O)cc2)CC1` showed an IC50 [1] greater than 10 µM, an IC50 [2] greater than 10 µM and an IC50 [3] greater than 10 µM. The IC50 [4] was greater than 10 µM and the IC50 [5] was greater than 10 µM.

With `CC1=CC(C)=[N+]2C1=C(CCCC(=O)N1CCC(CN(C(=O)[C@@H]3CCN(Cc4ccccc4)C3)c3ccc([As]4SCCS4)cc3)CC1)c1c(C)cc(C)n1[B-]2(F)F` the Activity [17] was “Active”.

Work on `CCN1CCC(CN(C(=O)[C@@H]2CCN(Cc3ccccc3)C2)c2ccc([As]3SCCS3)cc2)CC1` yielded an IC50 [1] greater than 10 µM, an IC50 [2] greater than 10 µM and an IC50 [3] of 0.16 µM. For the same compound, the IC50 [4] was 0.23 µM, the IC50 [5] was greater than 10 µM and the Activity [18] was “inactive”. For the same compound, the Activity [19] was “Active”, the Activity [11] was “inactive” and the Activity [12] was “inactive”. For the same compound, the Activity [20] was “Active”, the “fold change (FC)” value [21] was greater than 3 and the “fold change (FC)” value [22] was 2. The Activity [23] was “Non-Toxic”, the Activity [24] was “Non-Toxic” and the IC50 [13] was 0.016 µM. For the same compound, the IC50 [14] was 0.129 µM, the IC50 [15] was 0.093 µM and the inhibition [25] was “inactive”. For the same compound, the inhibition [26] was “Active”, the inhibition [27] was “Active” and the inhibition [28] was “Active”. For the same compound, the inhibition [29] was “inactive”, the inhibition [30] was “Active” and the inhibition [31] was “Active”. For the same compound, the inhibition [32] was “inactive”, the inhibition [33] was “inactive” and the inhibition [34] was “inactive”. The inhibition [35] was “Active” and the inhibition [36] was “inactive”.
